As usually defined, the IC50 is the concentration that gives 50% inhibition.

The target in assay [1] is T1, PFI-013 (Homo sapiens, UniProt Q9H3N8). Description: FLIPR functional cell-based assay (intracellular calcium) in PFI-013-transfected HEK293 cells expressing mouse Gα15. Set-up: expressed in transfected cells; host or cells: HEK293 cells expressing mouse Gα15, transient transfection. Particulars: for activation of PFI-013 by histaminergic compounds: FIG. 8, rank order of potency N-α-methyl histamine > histamine > R-α-methyl histamine = histamine-1-methyl. On the procedure: Fluorescence Imaging Plate Reader (FLIPR®) technology was employed as a means to detect activation of PFI-013 by histamine or histamine agonists in a cell-based assay.
5×10^6 Human Embryonic Kidney (HEK) 293 cells expressing the mouse Gα15 gene (from here on called ‘293 cells’), were transiently transfected with 7.5 μg of PFI-013 (contained within the pcDNA4HISmaxB (Invitrogen) plasmid) vector, or vector alone, using Lipofectamine Plus® reagent (Gibco BRL) as per the manufacturer's protocol. The PFI-013 cDNA had been cloned into pcDNA4HISmaxB using restriction sites KpnI and NotI to excise the PFI-013 cDNA from pcDNA3.1/V5-His-TOPO and to insert the cDNA into pcDNA4HISmaxB using standard molecular biology techniques (e.g. according to Sambrook, et al., eds. (1989) Molecular Cloning: A Laboratory Manual, Cold Spring Harbor Laboratory Press, New York, N.Y., USA) and using T4 DNA ligase to join the fragments; pcDNA4HISmaxB was used as it contains elements that up-regulate the level of gene transcription over standard pcDNA3.1 vectors). 24 hrs post-transfection, the cells were detached from the flask using Trypsin/EDTA solution (LTI) and seeded into a black sided, Poly-D-lysine-treated, 96-well plate (Becton Dickinson) at 5×10^4 cells/well density. The plates were left overnight to allow the cells to adhere to the bottom of the wells. The medium was removed from the cells and replaced with 100 μl warm (37° C.) dye loading solution (50 μg Fluo3 (Molecular probes) in 20 μl DMSO+20% pluronic acid in DMSO, added to 11 ml Dulbecco's Modified Eagles Medium containing 1×Probenecid (100×Probenecid—0.71 g Probenecid was dissolved in 5 ml 1M NaOH and 5 ml Dulbeccos' Phosphate Buffered Saline (PBS), per plate; Probenecid (Molecular Devices) inhibits activity of the anion transport protein, thus improving dye loading). The plates were then incubated for 1 hr at 37° C. Plates were subsequently washed with 250 μl of wash buffer per well (5 ml 100×Probenecid stock+495 ml PBS, pH 7.4) 4 times. The plates were returned to the 37° C./5% CO2 incubator for 30 mins prior to processing within the FLIPR® instrument. The FLIPR® processing involved reading the fluorescence for all samples for 2 minutes; during this time the fluorescence baseline was determined for 10 seconds. The desired amount of compound (i.e. histamine or histamine agonists) was then automatically transferred to the wells and the fluorescence was continuously monitored for the remainder of the time. All compounds were diluted in wash buffer.
Using methodology as described in detail above, the effect of histamine on the functional activation of PFI-013 was investigated.
Using methodology as described in detail above, the effect of histaminergic compounds on the functional activation of PFI-013 was investigated.
FIG. 8 depicts the action of various histaminergic compounds (columns 2 to 10) serially diluted from […] (rows A and B) down to 0.5 μM in duplicate (rows G and H), on PFI-013-transfected 293 cells (FIG. 8A) or vector-only transfected 293 cells (FIG. 8B). Remaining wells contained buffer only with no compound.

Assay [2] deals with isolated human eosinophils. Description: Human eosinophil chemotaxis assay (Boyden chamber) with histamine receptor subtype-selective agonists. The class given is cell-based. Particulars: in vitro, agonist in bottom wells, 45 minutes, FIG. 9. On the procedure: (§1) Eosinophils were isolated from peripheral blood as previously described (Hansel, T T., De Vries I J., Iff T., Rihs S., Wandzilak M., Betz S., Blaser K. and Walker C. (1991). An improved immunomagnetic procedure for the isolation of highly purified human blood eosinophils. J. Imm. Meth. 145:105-10). Chemotaxis was measured using a 48-well Boyden chamber (Neuro Probe Inc., Cabin John, Md., USA). Agonists were diluted in RPMI media (BioWhittaker, Walkersville, Md., USA) containing 0.1% bovine serum albumin (BSA) (Gibco BRL, Gaithersburg, Md., USA) and added to the bottom wells of the chemotaxis chamber. A 5 µm PVP-free polycarbonate filter was used to separate the wells of the chamber (Neuro Probe Inc., Cabin John, Md., USA). Eosinophils were resuspended in RPMI/BSA media at a concentration of 2.5×10^6 cells per ml. 50 µl of this cell suspension were then added to the upper chamber. Chambers were incubated for 45 minutes in a 5% CO2-humidified atmosphere at 37° C. After the incubation period, the filters were removed, the top side was scraped to remove non-migrating cells, and the filters were stained with Diff-Quik stain (Dade Behring AG, Dudingen, Switzerland). The number of cells migrating (bottom of filter) were counted by light microscopy. The mean of three high-powered fields was then determined. The number of migrating cells was calculated by subtracting […]. All compounds were purchased from Sigma-RBI.
Experiments were performed to characterise the histamine receptor subtype involved in the eosinophil chemotactic response to histamine. Methodology was as detailed above. […] Eotaxin was included as a positive control for eosinophil chemotaxis.

In assay [3] the test system is isolated human eosinophils. Briefly: Inhibition of histamine-induced chemotaxis of IL-5-primed human eosinophils. The class given is cell-based. Particulars: for IC50: Homo sapiens, Eosinophil, histamine 30 nM as agonist, antagonists at 10, 1 and 0.1 μM, preliminary results, FIG. 10C, read-out: IC50 for antagonising histamine-induced chemotaxis of human eosinophils; for reduction of the chemotactic response of isolated human eosinophils to histamine dihydrochloride: antagonists at a single concentration of 10 μM, IL-5-primed eosinophils, FIG. 10B. On the procedure:
as §1
Antagonist experiments were performed to further characterise the histamine receptor subtype involved in the eosinophil chemotactic response to histamine. […] Antagonists were used at a single concentration of 10 μM. Antagonists tested were: mepyramine maleate (histamine H1 antagonist), cimetidine (histamine H2 antagonist), thioperamide (histamine H3 antagonist) and clobenpropit (histamine H3 antagonist).
A further experiment was performed to determine the IC50 of both thioperamide and clobenpropit (histamine H3 antagonists) for inhibiting isolated human eosinophil in vitro chemotaxis. Methodology was as above, using thioperamide and clobenpropit at 10 μM, 1 μM and 0.1 μM concentrations (Histamine, as the agonist, was used at 30 nM).

For assay [4], the target named is T1, PFI-013. Particulars: 3H-histamine 0.72-1500 nM; difference between PFI-013-transfected and mock-transfected CHO-K1 membranes; preliminary data, FIG. 6.
In assay [5] the test system is isolated human eosinophils. Particulars: described by Raible et al. (1994); cited from earlier work.

T1 sequence (Q9H3N8 whole entry): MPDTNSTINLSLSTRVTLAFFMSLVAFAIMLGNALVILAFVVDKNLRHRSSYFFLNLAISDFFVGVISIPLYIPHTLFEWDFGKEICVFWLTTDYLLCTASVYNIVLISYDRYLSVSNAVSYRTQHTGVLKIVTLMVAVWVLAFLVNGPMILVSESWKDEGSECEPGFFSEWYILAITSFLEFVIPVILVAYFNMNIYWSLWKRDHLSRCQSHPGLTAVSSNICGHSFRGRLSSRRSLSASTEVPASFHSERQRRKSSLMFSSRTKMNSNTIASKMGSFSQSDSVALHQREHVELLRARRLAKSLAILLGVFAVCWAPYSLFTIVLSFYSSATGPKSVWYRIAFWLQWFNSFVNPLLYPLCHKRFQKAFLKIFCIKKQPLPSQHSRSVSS

For the compound `CN(C)CCCSC(=N)N` [Dimaprit], the “activation of PFI-013 by histaminergic compounds” value on PFI-013 [1] is given as “no activation of PFI-013 could be detected”. The “chemotactic response of isolated human eosinophils” value in assay [2] was “displayed no chemotactic activity”.
Take `CC(CCCCC(=O)Nc1ccc(C(F)(F)F)cc1)NCCc1cnc[nH]1.O=C(O)/C=C\C(=O)O.O=C(O)/C=C\C(=O)O` (stereo not shown) [HTMT, HTMT dimaleate]: the “chemotactic response of isolated human eosinophils” value in assay [2] is “very weak chemotactic response only at the highest concentration tested (1 μM)”.
Turning to `N[C@@H](Cc1c[nH]cn1)C(=O)O` [L-histidine], at PFI-013 [1], the “activation of PFI-013 by histaminergic compounds” value is listed as “no activation of PFI-013 could be detected”.
Consider `NC(=NCc1ccc(Cl)cc1)SCCCc1cnc[nH]1` [clobenpropit], for which the “activation of PFI-013 by histaminergic compounds” value on PFI-013 [1] is listed as “no activation of PFI-013 could be detected”. In assay [3], the IC50 was found to be 1500 nM and the “reduction of the chemotactic response of isolated human eosinophils to histamine dihydrochloride” value is recorded as “greatest effect on the reduction of the chemotactic response”.
With “IL-5: interleukin-5, used to prime the eosinophils for chemotaxis studies”, the “effect of IL-5 priming of eosinophils on the chemotactic response to histamine” value in assay [3] (IL-5 pretreatment of the eosinophils, FIG. 10A) is recorded as “enhance the chemotactic response to histamine”.
As to `COc1ccc2c(c1OC)C(=O)O[C@@H]2[C@H]1c2c(cc3c(c2OC)OCO3)CCN1C` [noscapine], the “activation of PFI-013 by histaminergic compounds” value at PFI-013 [1] is “no activation of PFI-013 could be detected”.
Regarding `NCCc1c[nH]cn1` [histamine], the “activation of PFI-013 by histaminergic compounds” value on PFI-013 [1] is on record as “activated”. Also, the “activation of PFI-013 by histamine (transient increase in intracellular calcium)” value on PFI-013 [1] (at the 10 μM concentration, tested 10 μM serially diluted in log steps down to 10 pM, versus vector-only cells, FIG. 7) is recorded as “specific activation of PFI-013”. Besides, the “binding of histamine to PFI-013” value on PFI-013 [4] was “binds to PFI-013, albeit with relatively low affinity”.
`N=C(N)SCCc1cnc[nH]1` [Imetit]: the “activation of PFI-013 by histaminergic compounds” value on PFI-013 [1] was “no activation of PFI-013 could be detected”. For the same compound, the “chemotactic response of isolated human eosinophils” value in assay [2] is “displayed no chemotactic activity”.
Regarding `CNCCc1cnc[nH]1` [N-α-methyl histamine], at PFI-013 [1], the “activation of PFI-013 by histaminergic compounds” value is “activated”.
Turning to `C[C@@H](N)Cc1c[nH]cn1` [R-α-methyl histamine], the “activation of PFI-013 by histaminergic compounds” value on PFI-013 [1] is recorded as “activated”.
Consider `Cl.Cl.NCCc1c[nH]cn1` [histamine dihydrochloride], for which the “chemotactic response of isolated human eosinophils” value in assay [2] is listed as “induced a significant chemotactic response”.
`CNC(=S)NCCCCc1cnc[nH]1` [Burimamide]: the “effect on intracellular Ca2+ production in isolated human eosinophils” value in assay [5] was “partial agonist effect”. In addition, in assay [2], the “chemotactic response of isolated human eosinophils” value is recorded as “displayed no chemotactic activity”.
Consider `S=C(NC1CCCCC1)N1CCC(c2cnc[nH]2)CC1` [thioperamide], for which, in assay [3], the IC50 is 830 nM and the “reduction of the chemotactic response of isolated human eosinophils to histamine dihydrochloride” value was “greatest effect on the reduction of the chemotactic response”.
As to `Cn1cnc(CCN)c1` [histamine-1-methyl], the “activation of PFI-013 by histaminergic compounds” value at PFI-013 [1] was “activated”.

Values taken from patent publication US20030149242A1, “Novel polypeptide” (Pfizer Inc., priority 1999, published 2003).
